39 compounds from US20080293749A1, “Pyrrolidine(thi)ones Substituted by Heterocyclic Substituents in The 3-Position” (Gruenenthal GmbH, priority 2005, published 2008) can be followed below.

In brackets after ≈: the same amount, converted by molar mass.

One series relates to IL-12 production of LPS-activated monocytes. The series is described as follows: Inhibition of IL-12 production of LPS-activated human monocytes (sandwich ELISA of culture supernatants). Type of series: cell-based. Conditions: Monocyte; human CD14-positive monocytes, 1 h preincubation with test substance, 10 μg/ml LPS from E. coli, 24 hours. The procedure: (§1) Stimulation of human monocytes with lipopolysaccharide for secretion of IL-10 and IL-12:
(§2) Human monocytes were isolated from peripheral blood mononuclear cells (PBMC), which were obtained from heparinized whole blood by means of a Ficoll density gradient centrifugation. For this, the PBMC were incubated with a monoclonal antibody which is directed against the monocyte-specific surface molecule CD14 and to which superparamagnetic microbeads (Miltenyi Biotech, Bergisch Gladbach) are coupled. For positive selection of the labelled monocytes from the cell mixture of the PBMC, the entire cell suspension was applied to a column with a ferromagnetic carrier matrix and this was placed in a magnetic field. The cells loaded with microbeads were thereby bound to the carrier matrix, and non-labelled cells passed through the column and were discarded. After removing the matrix from the magnetic field, the antibody-laden cells were eluted by rinsing the now demagnetized column with buffer. The purity of this CD14-positive monocyte population obtained in this way is about 95-98%. These monocytes were incubated in a density of 10^6 cells/ml of culture medium (RPMI, supplemented with 10% foetal calf serum) with the test substances, dissolved in DMSO, at 37° C. and 5% CO2 for one hour. 10 μg/ml of LPS from E. coli were then added. After 24 hours, cell-free culture supernatants were taken and tested for the content of IL-10 and IL-12.
(§3) The concentration of IL-12 and IL-10 in the cell culture supernatants was determined by means of sandwich ELISAs using two anti-IL-12 and, respectively, IL-10 monoclonal antibodies (Biosource Europe, Fleurus, Belgium). A reference standard curve with human IL-10 and, respectively, IL-12 was included. The detection limit of the ELISAs was 15 pg/ml.
Take `O=C1CC(N2C=Nc3cc(F)cc(Cl)c3C2)C(=O)N1` (stereo not drawn) [Example 1, 3-(5-chloro-7-fluoro-4H-quinazolin-3-yl)-pyrrolidine-2,5-dione]: the IC50 was 1.5 µg/mL (≈ 5.33 µM).
The same measure, in the same setting: the result for `O=C1CC(N2C=Nc3cc(Cl)cc(F)c3C2)C(=O)N1` (stereo not drawn) [Example 2, 3-(7-chloro-5-fluoro-4H-quinazolin-3-yl)-pyrrolidine-2,5-dione] reads 1.4 µg/mL (≈ 4.97 µM).
Take `O=C1CC(N2C=Nc3cc(F)cc(F)c3C2)C(=O)N1` (stereo not drawn) [Example 4, 3-(5,7-difluoro-4H-quinazolin-3-yl)-pyrrolidine-2,5-dione]: it took 0.107 µg/mL (≈ 0.403 µM) to reach half-maximal inhibition (IC50). Against the preceding compound, the IC50 is about 13-fold lower.

The next series relates to IL-10 production of LPS-activated monocytes. Kind of series: Increase in IL-10 production of LPS-activated human monocytes (sandwich ELISA of culture supernatants). Type of series: cell-based. Conditions: Monocyte; human CD14-positive monocytes, 1 h preincubation with test substance, 10 μg/ml LPS from E. coli, 24 hours. As to the method: as §1, §2, §3
In turn, `O=C1CC(N2C=Nc3cc(F)cc(Cl)c3C2)C(=O)N1` (stereo not drawn) [Example 1, 3-(5-chloro-7-fluoro-4H-quinazolin-3-yl)-pyrrolidine-2,5-dione] yielded an EC200 of 4 µg/mL.
On to `O=C1CC(N2C=Nc3cc(Cl)cc(F)c3C2)C(=O)N1` (stereo not drawn) [Example 2, 3-(7-chloro-5-fluoro-4H-quinazolin-3-yl)-pyrrolidine-2,5-dione], for which the EC200 was 1 µg/mL.
Still for that read-out and setting: the result for `O=C1CC(N2C=Nc3cc(F)cc(F)c3C2)C(=O)N1` (stereo not drawn) [Example 4, 3-(5,7-difluoro-4H-quinazolin-3-yl)-pyrrolidine-2,5-dione] reads 0.62 µg/mL.

System in a further series: not given
Test: not given
Details: not given
Compound `O=C1CC(N2C=Nc3c(Cl)cc(Cl)cc3C2)C(=O)N1` (stereo not drawn) [Example 8e, 3-(6,8-dichloro-4H-quinazolin-3-yl)-pyrrolidine-2,5-dione] showed a melting point of 230 to 232 °C.
On the same count and under the same terms, the value for `O=C1CC(N2C=Nc3ccc([N+](=O)[O-])cc3C2)C(=O)N1` (stereo not drawn) [Example 8f, 3-(6-nitro-4H-quinazolin-3-yl)-pyrrolidine-2,5-dione] was 168 to 172 °C.
Still for that read-out and setting: the result for `O=C1CC(N2C=Nc3cc([N+](=O)[O-])ccc3C2)C(=O)N1` (stereo not drawn) [Example 8h, 3-(7-nitro-4H-quinazolin-3-yl)-pyrrolidine-2,5-dione] reads 212 to 225 °C; that for `Cc1cc(Br)c2c(c1)CN(C1CC(=O)NC1=O)C=N2` (stereo not drawn) [Example 8i, 3-(8-bromo-6-methyl-4H-quinazolin-3-yl)-pyrrolidine-2,5-dione], 240 to 241 °C.
Still for that read-out and setting: the value for `O=C1CC(N2C=Nc3c(Cl)cccc3C2)C(=O)N1` (stereo not drawn) [Example 8j, 3-(8-chloro-4H-quinazolin-3-yl)-pyrrolidine-2,5-dione] was 194 °C; that for `COc1cccc2c1N=CN(C1CC(=O)NC1=O)C2` (stereo not drawn) [Example 8k, 3-(8-methoxy-4H-quinazolin-3-yl)-pyrrolidine-2,5-dione] was 195 to 200 °C.
With `O=C1CC(N2C=Nc3ccc(OCc4ccccc4)cc3C2)C(=O)N1` (stereo not drawn) [Example 8l, 3-(6-benzyloxy-4H-quinazolin-3-yl)-pyrrolidine-2,5-dione], the melting point is 171 to 173 °C.
Still for that read-out and setting: the value for `O=C1CC(N2C=Nc3ccc(Cl)c(Cl)c3C2)C(=O)N1` (stereo not drawn) [Example 9a, 3-(5,6-dichloro-4H-quinazolin-3-yl)-pyrrolidine-2,5-dione] was 174 to 178 °C; that for `COc1cc2c(cc1OC)N=CN(C1CC(=O)NC1=O)C2` (stereo not drawn) [Example 10b, 3-(6,7-dimethoxy-4H-quinazolin-3-yl)-pyrrolidine-2,5-dione] was 189 to 200 °C; that for `O=C1CC(N2C=Nc3c(cccc3C(F)(F)F)C2)C(=O)N1` (stereo not drawn) [Example 11c, 3-(8-trifluoromethyl-4H-quinazolin-3-yl)-pyrrolidine-2,5-dione] was 188 to 190 °C.
`CN1C(=O)CC(N2C=Nc3ccccc3C2)C1=O` (stereo not drawn) [Example 11d, 1-methyl-3-(4H-quinazolin-3-yl)-pyrrolidine-2,5-dione]: the melting point fell in the range of 163 to 164 °C.
`CN1C(=O)CC(N2C=Nc3cc(F)ccc3C2)C1=O` (stereo not drawn) [Example 11e, 7-fluoro-1-methyl-3-(4H-quinazolin-3-yl)-pyrrolidine-2,5-dione] registered a melting point of 191 to 193 °C.
Consider `CCOc1cccc2c1CN(C1CC(=O)NC1=O)C=N2` (stereo not drawn) [Example 12b, 3-(5-ethoxy-4H-quinazolin-3-yl)-pyrrolidine-2,5-dione], for which the melting point lay in the range of 203 to 205 °C.
On the same count and under the same terms, the value for `CCCCCOc1cccc2c1CN(C1CC(=O)NC1=O)C=N2` (stereo not drawn) [Example 12c, 3-(5-pentyloxy-4H-quinazolin-3-yl)-pyrrolidine-2,5-dione] was 154 to 160 °C.
On the same count and under the same terms, the value for `O=C1CC(N2C=Nc3cccc(OCc4ccccc4)c3C2)C(=O)N1` (stereo not drawn) [Example 12d, 3-(5-benzyloxy-4H-quinazolin-3-yl)-pyrrolidine-2,5-dione] was 100 to 108 °C; that for `CC(C)Oc1cccc2c1CN(C1CC(=O)NC1=O)C=N2` (stereo not drawn) [Example 12e, 3-(5-isopropoxy-4H-quinazolin-3-yl)-pyrrolidine-2,5-dione] was 191 to 192 °C; that for `COCCOc1cccc2c1CN(C1CC(=O)NC1=O)C=N2` (stereo not drawn) [Example 12f, 3-(5-(2-methoxyethoxy)-4H-quinazolin-3-yl)-pyrrolidine-2,5-dione] was 288 to 290 °C.
With `CC1=Nc2cc(C(F)(F)F)ccc2CN1C1CC(=O)NC1=O` (stereo not drawn) [Example 15aa, 3-(2-methyl-7-trifluoromethyl-4H-quinazolin-3-yl)-pyrrolidine-2,5-dione], the melting point lay in the range of 205 to 206 °C.
Still for that read-out and setting: the result for `CC1=Nc2ccc(Cl)c(Cl)c2CN1C1CC(=O)NC1=O` (stereo not drawn) [Example 15c, 3-(5,6-dichloro-2-methyl-4H-quinazolin-3-yl)-pyrrolidine-2,5-dione] reads 161 to 166 °C; that for `CC1=Nc2cc(Cl)cc(Cl)c2CN1C1CC(=O)NC1=O` (stereo not drawn) [Example 15d, 3-(5,7-dichloro-2-methyl-4H-quinazolin-3-yl)-pyrrolidine-2,5-dione], 199 to 201 °C.
Same read-out and setting: the value for `CC1=Nc2cc([N+](=O)[O-])ccc2CN1C1CC(=O)NC1=O` (stereo not drawn) [Example 15ee, 3-(2-methyl-7-nitro-4H-quinazolin-3-yl)-pyrrolidine-2,5-dione] was 203 to 210 °C; that for `CC1=Nc2c(Cl)ccc(Cl)c2CN1C1CC(=O)NC1=O` (stereo not drawn) [Example 15f, 3-(5,8-dichloro-2-methyl-4H-quinazolin-3-yl)-pyrrolidine-2,5-dione] was 186 to 191 °C; that for `CC1=Nc2c(Br)cc(C)cc2CN1C1CC(=O)NC1=O` (stereo not drawn) [Example 15ff, 3-(8-bromo-2,6-dimethyl-4H-quinazolin-3-yl)-pyrrolidine-2,5-dione] was 145 to 150 °C.
In turn, `CC1=Nc2c(Cl)cccc2CN1C1CC(=O)NC1=O` (stereo not drawn) [Example 15hh, 3-(8-chloro-2-methyl-4H-quinazolin-3-yl)-pyrrolidine-2,5-dione] returned a melting point of 176 to 178 °C.
The same measure, in the same setting: the result for `CCOc1cccc2c1CN(C1CC(=O)NC1=O)C(C)=N2` (stereo not drawn) [Example 15k, 3-(5-ethoxy-2-methyl-4H-quinazolin-3-yl)-pyrrolidine-2,5-dione] reads 130 to 133 °C.
Still for that read-out and setting: the result for `CC1=Nc2cccc(OC(C)C)c2CN1C1CC(=O)NC1=O` (stereo not drawn) [Example 15m, 3-(5-isopropoxy-2-methyl-4H-quinazolin-3-yl)-pyrrolidine-2,5-dione] reads 116 to 119 °C; that for `CC1=Nc2cccc(C)c2CN1C1CC(=O)NC1=O` (stereo not drawn) [Example 15n, 3-(2,5-dimethyl-4H-quinazolin-3-yl)-pyrrolidine-2,5-dione], 200 to 201 °C; that for `COc1cccc2c1CN(C1CC(=O)NC1=O)C(C)=N2` (stereo not drawn) [Example 15o, 3-(5-methoxy-2-methyl-4H-quinazolin-3-yl)-pyrrolidine-2,5-dione], 122 °C.
`CC1=Nc2cccc([N+](=O)[O-])c2CN1C1CC(=O)NC1=O` (stereo not drawn) [Example 15p, 3-(2-methyl-5-nitro-4H-quinazolin-3-yl)-pyrrolidine-2,5-dione]: the melting point was > 260 °C (dec.).
Still for that read-out and setting: the value for `CCCCCOc1cccc2c1CN(C1CC(=O)NC1=O)C(C)=N2` (stereo not drawn) [Example 15q, 3-(2-methyl-5-pentyloxy-4H-quinazolin-3-yl)-pyrrolidine-2,5-dione] was 154 to 156 °C.
Same read-out and setting: the result for `CC1=Nc2cc3ccccc3cc2CN1C1CC(=O)NC1=O` (stereo not drawn) [Example 15t, 3-(2-methyl-4H-benzo[g]quinazolin-3-yl)-pyrrolidine-2,5-dione] reads 106 to 110 °C; that for `COc1cc2c(cc1OC)N=C(C)N(C1CC(=O)NC1=O)C2` (stereo not drawn) [Example 15v, 3-(6,7-dimethoxy-2-methyl-4H-quinazolin-3-yl)-pyrrolidine-2,5-dione], 200 to 202 °C.
`CC1=Nc2c(Cl)cc(Cl)cc2CN1C1CC(=O)NC1=O` (stereo not drawn) [Example 15w, 3-(6,8-dichloro-2-methyl-4H-quinazolin-3-yl)-pyrrolidine-2,5-dione]: the melting point is 180 to 182 °C.
Regarding `CC1=Nc2ccc(OCc3ccccc3)cc2CN1C1CC(=O)NC1=O` (stereo not drawn) [Example 15x, 3-(6-benzyloxy-2-methyl-4H-quinazolin-3-yl)-pyrrolidine-2,5-dione], the melting point fell in the range of 132 to 143 °C.
The compound `CC1=Nc2ccc(Cl)cc2CN1C1CC(=O)NC1=O` (stereo not drawn) [Example 15y, 3-(6-chloro-2-methyl-4H-quinazolin-3-yl)-pyrrolidine-2,5-dione] yielded a melting point of 195 to 203 °C.
The compound `CC1=Nc2ccc([N+](=O)[O-])cc2CN1C1CC(=O)NC1=O` (stereo not drawn) [Example 15z, 3-(2-methyl-6-nitro-4H-quinazolin-3-yl)-pyrrolidine-2,5-dione] came in with a melting point of 170 to 175 °C.

Usually IC50 stands for the midpoint of a concentration-inhibition curve. The low end stands for greater potency in that assay, the high end for weaker potency in that assay. As usually defined, the melting point is the temperature, or range, at which the solid turns liquid.
